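Following 48 hours of exposure in 96-well plates, responses at five concentrations were used to interpolate endpoints linearly. The concentration for 50% growth inhibition is given as GI50.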 Activity calls are given as the source filed them. Rule as the data show it: active = GI50 up to about 1.1 µM and inactive = higher.
Key:
Assay in all cases: NCI tumour cell line growth inhibition, 48 h
EKVX = system: EKVX
HCT-15 = system: HCT-15
HOP-62 = system: HOP-62
KM12 = system: KM12
LOX IMVI = system: LOX IMVI
MOLT-4 = system: MOLT-4
NCI-H226 = system: NCI-H226
NCI-H460 = system: NCI-H460
OVCAR-5 = system: OVCAR-5
OVCAR-8 = system: OVCAR-8
RPMI-8226 = system: RPMI-8226
RXF 393 = system: RXF 393
SF-268 = system: SF-268
SK-MEL-28 = system: SK-MEL-28
SK-MEL-5 = system: SK-MEL-5
SNB-75 = system: SNB-75
UACC-257 = system: UACC-257

Measured: GI50

Clc1ccc(Cc2nc3ccccc3s2)c(Cl)c1
inactive: EKVX 23.6 µM | HOP-62 18.3 µM | KM12 16.6 µM | LOX IMVI 16.7 µM | MOLT-4 14.3 µM | NCI-H226 20.4 µM | NCI-H460 19.8 µM | OVCAR-5 19.3 µM | OVCAR-8 19.8 µM | RPMI-8226 17.7 µM | RXF 393 20.9 µM | SF-268 15.7 µM | SK-MEL-28 18.3 µM | SK-MEL-5 17.5 µM | SNB-75 14.7 µM | UACC-257 17.5 µM
16.3 µM: HCT-15

CNc1ccc([N+](=O)[O-])c2c(NCCCN(C)C)ccnc12
inactive: EKVX > 100 µM | HOP-62 > 100 µM | KM12 > 100 µM | LOX IMVI > 100 µM | MOLT-4 > 100 µM | NCI-H226 > 100 µM | NCI-H460 > 100 µM | OVCAR-5 > 100 µM | OVCAR-8 > 100 µM | RPMI-8226 > 100 µM | SF-268 > 100 µM | SK-MEL-28 > 100 µM | UACC-257 > 100 µM
> 100 µM: HCT-15

CCCCOCN/C(N)=N/C#N
inactive: EKVX > 100 µM | HOP-62 > 100 µM | KM12 71.4 µM | LOX IMVI 21.5 µM | MOLT-4 > 100 µM | NCI-H226 > 100 µM | NCI-H460 > 100 µM | OVCAR-5 > 100 µM | OVCAR-8 > 100 µM | RPMI-8226 > 100 µM | RXF 393 > 100 µM | SF-268 > 100 µM | SK-MEL-28 > 100 µM | SK-MEL-5 > 100 µM | SNB-75 > 100 µM | UACC-257 > 100 µM
21.9 µM: HCT-15

O=[N+]([O-])c1cccc(C(O)/C(=N/Nc2ccccc2)C2Nc3ccc([N+](=O)[O-])cc3N=C2O)c1 (configuration not stated)
inactive: EKVX > 100 µM | HOP-62 > 100 µM | KM12 27.8 µM | LOX IMVI > 100 µM | MOLT-4 27.2 µM | NCI-H226 > 100 µM | NCI-H460 42.9 µM | OVCAR-5 49.3 µM | OVCAR-8 > 100 µM | RPMI-8226 43 µM | RXF 393 > 100 µM | SF-268 93.5 µM | SK-MEL-28 > 100 µM | SK-MEL-5 16.9 µM | SNB-75 74 µM | UACC-257 > 100 µM
14.4 µM: HCT-15

CC(C)OCN1COCN/C1=N/C#N
inactive: EKVX > 100 µM | HOP-62 > 100 µM | KM12 > 100 µM | MOLT-4 > 100 µM | NCI-H226 > 100 µM | NCI-H460 > 100 µM | OVCAR-5 > 100 µM | OVCAR-8 > 100 µM | RXF 393 > 100 µM | SF-268 > 100 µM | SK-MEL-28 > 100 µM | SK-MEL-5 > 100 µM | SNB-75 > 100 µM | UACC-257 > 100 µM
17.7 µM: HCT-15

COc1ccc(-c2cn3ccsc3n2)cc1
39.6 µM: HCT-15
inactive: EKVX > 100 µM | HOP-62 > 100 µM | KM12 > 100 µM | LOX IMVI 36.2 µM | MOLT-4 97.7 µM | NCI-H226 > 100 µM | NCI-H460 87.7 µM | OVCAR-5 > 100 µM | OVCAR-8 > 100 µM | RPMI-8226 22.3 µM | SF-268 > 100 µM | SK-MEL-28 > 100 µM | SK-MEL-5 > 100 µM | SNB-75 > 100 µM | UACC-257 > 100 µM

CCOC(=O)[C@@]12C(C)=CC(=O)O[C@]1(C)C1C(=O)NC(=O)C12 (some centres not stated)
inactive: EKVX > 100 µM | HOP-62 > 100 µM | KM12 > 100 µM | LOX IMVI > 100 µM | MOLT-4 > 100 µM | NCI-H226 7.16 µM | NCI-H460 > 100 µM | OVCAR-8 > 100 µM | RPMI-8226 > 100 µM | RXF 393 > 100 µM | SK-MEL-28 > 100 µM | SK-MEL-5 > 100 µM | SNB-75 85.1 µM | UACC-257 > 100 µM

O=C(/C=C(\O)C(=O)O)/C=C(\O)c1ccccc1
> 4.65 µM: HCT-15
inactive: EKVX > 4.65 µM | HOP-62 > 4.65 µM | LOX IMVI > 4.65 µM | MOLT-4 > 100 µM | NCI-H226 > 4.65 µM | NCI-H460 > 4.65 µM | OVCAR-8 > 100 µM | RXF 393 > 100 µM | SF-268 > 4.65 µM | SNB-75 > 4.65 µM | UACC-257 > 4.65 µM

Cc1nn(C)c(=O)c2nn(-c3ccccc3)c(C)c12
inactive: EKVX > 100 µM | HOP-62 > 100 µM | KM12 > 100 µM | LOX IMVI > 100 µM | MOLT-4 > 100 µM | NCI-H226 > 100 µM | NCI-H460 > 100 µM | OVCAR-5 > 100 µM | OVCAR-8 > 100 µM | RPMI-8226 > 100 µM | RXF 393 > 100 µM | SF-268 > 100 µM | SK-MEL-28 > 100 µM | SK-MEL-5 > 100 µM | SNB-75 > 100 µM | UACC-257 > 100 µM
> 100 µM: HCT-15

O=[N+]([O-])c1ccc(C2=Nc3ccccc3[S+]([O-])C(c3ccccc3)C2)cc1 (configuration not stated)
27 µM: HCT-15
inactive: EKVX 22.4 µM | HOP-62 26.7 µM | KM12 15.3 µM | LOX IMVI 15.2 µM | MOLT-4 16.6 µM | NCI-H226 16.1 µM | NCI-H460 24.5 µM | OVCAR-5 25.8 µM | OVCAR-8 32.4 µM | RPMI-8226 5.56 µM | RXF 393 14.9 µM | SF-268 27.9 µM | SK-MEL-28 20 µM | SK-MEL-5 > 10 µM | SNB-75 19 µM | UACC-257 22.1 µM

c1ccc(C2N3CCCCC3[C@@H]3c4[nH]c5ccccc5c4CCN23)nc1 (some centres not stated)
> 100 µM: HCT-15
inactive: EKVX > 100 µM | HOP-62 > 100 µM | MOLT-4 > 100 µM | NCI-H460 > 100 µM | OVCAR-5 > 100 µM | OVCAR-8 > 100 µM | RPMI-8226 > 100 µM | RXF 393 33.3 µM | SF-268 47.9 µM | SK-MEL-28 > 100 µM | SK-MEL-5 > 100 µM | SNB-75 68.7 µM | UACC-257 > 100 µM

[N-]=[N+]=NC1C2CC3C4CC5CC3[C@H](C2)C(C5)C41 (some centres not stated)
inactive: EKVX > 100 µM | HOP-62 > 100 µM | KM12 > 100 µM | LOX IMVI > 100 µM | MOLT-4 > 100 µM | NCI-H226 75.3 µM | NCI-H460 > 100 µM | OVCAR-5 > 100 µM | OVCAR-8 > 100 µM | RPMI-8226 > 100 µM | RXF 393 > 100 µM | SF-268 > 100 µM | SK-MEL-28 > 100 µM | SK-MEL-5 > 100 µM | SNB-75 > 100 µM | UACC-257 > 100 µM

COC(=O)C1=C(c2ccc3c(c2)OCO3)OC(c2cc(OC)c(OC)c(OC)c2)C1 (configuration not stated)
0.664 µM: HCT-15
inactive: EKVX 2.82 µM | HOP-62 > 100 µM | LOX IMVI 5.68 µM | MOLT-4 6.44 µM | NCI-H226 3.81 µM | NCI-H460 3.49 µM | OVCAR-5 > 100 µM | OVCAR-8 4.17 µM | RPMI-8226 8.87 µM | RXF 393 2.81 µM | SF-268 31.6 µM | SK-MEL-28 > 100 µM | SK-MEL-5 2.49 µM | SNB-75 2.72 µM | UACC-257 7.18 µM

CN(C)/C=N\c1nc(=O)n(C2CCC(CO)O2)cc1F (configuration not stated)
> 100 µM: HCT-15
inactive: EKVX > 100 µM | HOP-62 > 100 µM | KM12 > 100 µM | LOX IMVI > 100 µM | MOLT-4 > 100 µM | NCI-H226 > 100 µM | NCI-H460 > 100 µM | OVCAR-5 > 100 µM | OVCAR-8 > 100 µM | RPMI-8226 > 100 µM | RXF 393 > 100 µM | SF-268 > 100 µM | SK-MEL-28 > 100 µM | SK-MEL-5 > 100 µM | SNB-75 > 100 µM | UACC-257 > 100 µM

O=[N+]([O-])C1Cc2ccccc2OC1c1ccccc1 (configuration not stated)
inactive: EKVX > 100 µM | HOP-62 33.5 µM | KM12 > 100 µM | LOX IMVI 15.3 µM | MOLT-4 23.4 µM | NCI-H226 > 100 µM | OVCAR-5 > 100 µM | OVCAR-8 89.7 µM | RXF 393 21.8 µM | SF-268 36.1 µM | SK-MEL-28 86.1 µM | SK-MEL-5 > 100 µM | SNB-75 19.9 µM | UACC-257 > 100 µM

CC(=O)c1ccc(NC(=O)/C(Cc2ccccn2)=N/NC(=O)C[N+](C)(C)C)cc1
inactive: EKVX > 100 µM | HOP-62 > 100 µM | KM12 > 100 µM | LOX IMVI > 100 µM | MOLT-4 > 100 µM | NCI-H226 > 100 µM | NCI-H460 > 100 µM | OVCAR-5 > 100 µM | OVCAR-8 > 100 µM | RPMI-8226 > 100 µM | RXF 393 > 100 µM | SF-268 > 100 µM | SK-MEL-28 > 100 µM | SK-MEL-5 > 100 µM | SNB-75 > 100 µM | UACC-257 > 100 µM
> 100 µM: HCT-15

CCc1cccc(C(C)C)c1NC(=O)/C(=N\NC(N)=O)C(C(=O)OC)c1cnc2ccccc2n1 (configuration not stated)
39.2 µM: HCT-15
inactive: EKVX > 100 µM | HOP-62 40.6 µM | KM12 41.6 µM | LOX IMVI 34.8 µM | MOLT-4 32.9 µM | NCI-H226 50.5 µM | NCI-H460 31.6 µM | OVCAR-5 > 100 µM | OVCAR-8 54.1 µM | RXF 393 50 µM | SF-268 > 100 µM | SK-MEL-28 55.8 µM | SK-MEL-5 18.7 µM | SNB-75 47.4 µM | UACC-257 32.1 µM

CC(C)OP(=O)(OC(C)C)/C(N)=N/Nc1ccc([N+](=O)[O-])cc1
> 100 µM: HCT-15
inactive: EKVX 25.4 µM | HOP-62 > 100 µM | KM12 > 100 µM | LOX IMVI > 100 µM | MOLT-4 52.1 µM | NCI-H226 53 µM | NCI-H460 41.7 µM | OVCAR-5 > 100 µM | OVCAR-8 > 100 µM | RPMI-8226 > 100 µM | SF-268 > 100 µM | SK-MEL-28 > 100 µM | SK-MEL-5 60.1 µM | SNB-75 81.7 µM | UACC-257 25.1 µM

Reference: ChEMBL document CHEMBL1201862, “PubChem BioAssay data set” (2004)
